Results: patent publication US8518958B2, “Pyrido [2,3-D] pyrimidines and their use as kinase inhibitors” (Forma Therapeutics, Inc., priority 2006, dated 2013)

What was measured:
HT-29 tumor cells = assay: Anti-proliferative activity, SRB assay; type: cell-based, human; conditions: Homo sapiens, HT-29, 72 h, 72 hours exposure, read-out: CELLULAR IC50 HT-29
Description: We observed the surprising finding that compounds of the invention were useful in inhibiting proliferation of HT-29 tumor cells (see Table 3).
3,000-15,000 cells/well were exposed to the test compounds at various concentrations appropriate to determine an IC50, for 72 hours, and cell proliferation was measured using the SRB assay according to Shekan et al (J Natl Cancer Inst (1990) 82, 1107-112) in order to estimate the IC50 values shown in Table 3. Briefly, cells were plated in 96 well dishes 24 hours prior to compound addition. The assay was terminated with the addition of cold TCA to a final concentration of 10% and the plates were incubated for one hour at 4° C. The plates were then washed 5 times with water and 100 μl of a Sulforhodamine B solution (4%) was added to each well. The plate was then incubated for 10 minutes at room temperature before removal of unbound dye by washing with 1% acetic acid. The bound dye was solubilized with 10 mM Trizma base and the absorbance read at OD570. Inhibitory activity of the compounds was calculated as % inhibition of cell proliferation compared to cells treated with the solvent (DMSO).

B-Raf delta1-415 = B-Raf delta1-415 (Homo sapiens, UniProt P15056); assay: B-Raf kinase inhibition (MAPH filter plate, 33P-ATP, MEK1 substrate); conditions: read-out: Biochemical IC50 B-Raf
Sequence of B-Raf delta1-415 (P15056 416-766): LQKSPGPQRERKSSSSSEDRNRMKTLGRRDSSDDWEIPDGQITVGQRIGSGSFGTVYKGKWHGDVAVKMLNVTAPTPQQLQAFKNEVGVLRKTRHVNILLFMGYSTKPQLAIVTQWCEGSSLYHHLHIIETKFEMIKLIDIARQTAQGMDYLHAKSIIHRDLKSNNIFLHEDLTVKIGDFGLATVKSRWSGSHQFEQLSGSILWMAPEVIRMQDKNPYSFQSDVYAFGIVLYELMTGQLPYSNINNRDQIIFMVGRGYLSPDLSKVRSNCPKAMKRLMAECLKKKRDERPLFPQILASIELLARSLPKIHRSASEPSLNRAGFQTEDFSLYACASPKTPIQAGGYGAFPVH
Excerpt: We characterized the in vitro inhibitory activity against protein kinases of compounds of the present invention by determining their IC50 values (see Table 2).
Kinase: B-Raf delta1-415 (e.g., Upstate Cat. No. 14-530)
Reaction Temperature: room temperature
Assay Plate: 96 well U bottom plate (Greiner, 650161)
MultiScreen-PH Plate: 96 well MAPH Filter Plates (Millipore, MAPHNOB50)
Filter Washing Solution: 0.75% H3PO4
Szintilation Liquid: Supermix Liquid Szintillator (PerkinElmer, 1200-439)
Negative Control (C−): 100 mM EDTA, no Inhibitor
Positive Control (C+): no Inhibitor
Reaction Buffer: 20 mM Mops, pH 7.0 • 10 mM MgCl2 • 0.4 mM MnCl2 • 100 mM NaCl • 1 mM DTT • 0.01% NP40
Final Assay Concentrations:
Kinase: Kinase conc. yielding 50% substrate turnover as determined in titration experiment.
Adenosine 5′-[γ-^33P]triphosphate: 12.5 μCi/ml (Amersham Biosciences, BF1000)
Pipetting Sequence: • 1) Add 10 μl 4-fold concentrated substrate in 3-fold concentrated reaction buffer to each well of assay plate • 2) Add 10 μl 4-fold concentrated inhibitor in 4% DMSO in H2O to each well except to C− and C+ wells (starting point: final inhibitor concentration 10 μM; IC50 determination based on dilution series) • 3) Add 10 μl 4% DMSO in H2O to C− and C+ wells • 4) Add 10 μl 500 mM EDTA in H2O to C− wells • 5) Add 10 μl 50 μCi/ml adenosine 5′-[γ-^33P]triphosphate in H2O+4-fold cold ATP to each well • 6) Add 10 μl 4-fold concentrated kinase in reaction buffer to each well • 7) Incubate 1 hr at room temperature • 8) Add 10 μl 50 mM EDTA in H2O to each well except to C− wells • 9) Prepare MAPH plates by adding 200 μl 0.75% H3PO4 to each well • 10) Exhaust 0.75% H3PO4 using Millipore vacuum station • 11) Add 60 μl 0.75% H3PO4 to each well of MAPH filter plate • 12) Transfer 30 μl sample per well from assay plate to corresponding well of MAPH filter plate • 13) Incubate 30 min at room temperature • 14) Wash each well of MAPH filter plates 3× with 200 μl 0.75% H3PO4 using Millipore vacuum station • 15) Add 20 μl scintillation liquid to each well of MAPH filter plate • 16) Seal MAPH filter plate • 17) Store MAPH filter plate 30 min in darkness • 18) Quantify radioactivity using scintillation counter (MicroBeta, Perkin-Elmer)

Compound | IC50 (HT-29 tumor cells) | IC50 (B-Raf delta1-415)
COn1c(=O)c(-c2c(Cl)cccc2Cl)cc2cnc(Nc3ccc(Cc4n[nH]c(C)n4)cc3)nc21 [Compound 151, 6-(2,6-Dichlorophenyl)-8-methoxy-2-(4-(5-methyl-1,2,4-triazol-3-yl)methylphenyl)-amino-pyrido[2,3-d]pyrimidin-7-one] | < 1000 nM | < 500 nM
COn1c(=O)c(-c2c(Cl)cccc2Cl)cc2cnc(NC3CC3)nc21 [Compound 113, 2-Cyclopropylamino-6-(2,6-dichlorophenyl)-8-methoxy-pyrido[2,3-d]pyrimidin-7-one] | < 10000 nM | < 500 nM
CC(C)N1CCN(c2ccc(Nc3ncc4cc(-c5c(Cl)cccc5Cl)c(=O)n(OCC5CCOCC5)c4n3)cc2)CC1 [Compound 206, 6-(2,6-Dichlorophenyl)-8-(tetrahydropyran-4-ylmethyl)oxy-2-(4-(4-(1-methylethyl)piperazino)phenyl)-amino-pyrido[2,3-d]pyrimidin-7-one] | < 1000 nM | < 500 nM
COn1c(=O)c(-c2c(Cl)cccc2Cl)cc2cnc(NC(=O)C3CC3)nc21 [Compound 80, 2-Cyclopropylcarbonylamino-6-(2,6-dichlorophenyl)-8-methoxy-pyrido[2,3-d]pyrimidin-7-one] | > 10000 nM | > 1000 nM
COn1c(=O)c(-c2c(Cl)cccc2Cl)cc2cnc(Nc3cc[nH]n3)nc21 [Compound 88, 6-(2,6-Dichlorophenyl)-8-methoxy-2-(pyrazol-3-yl)-amino-pyrido[2,3-d]pyrimidin-7-one] | < 10000 nM | < 500 nM
CO/N=C/c1ccc(Nc2ncc3cc(-c4c(Cl)cccc4Cl)c(=O)n(OC)c3n2)cc1 [Compound 209, 2-(4-(methoximino)methylphenyl)-amino-6-(2,6-dichlorophenyl)-8-methoxy-pyrido[2,3-d]pyrimidin-7-one] | < 1000 nM | < 1000 nM
COn1c(=O)c(-c2c(Cl)cccc2Cl)cc2cnc(NCc3ccccc3)nc21 [Compound 145, 6-(2,6-Dichlorophenyl)-8-methoxy-2-phenylmethylamino-pyrido[2,3-d]pyrimidin-7-one] | < 10000 nM | < 10000 nM
CNS(=O)(=O)Cc1ccc(Nc2ncc3cc(-c4c(Cl)cccc4Cl)c(=O)n(OC)c3n2)cc1 [Compound 125, 6-(2,6-dichlorophenyl)-8-methoxy-2-(4-(methylaminosulfonylmethyl)phenyl)-amino-pyrido[2,3-d]pyrimidin-7-one] | < 1000 nM | < 100 nM
CCN(CC)Cc1ccc(Nc2ncc3cc(-c4c(Cl)cccc4Cl)c(=O)n(OC)c3n2)cc1 [Compound 167, 6-(2,6-Dichlorophenyl)-2-(4-diethylaminomethylphenyl)-amino-8-methoxy-pyrido[2,3-d]pyrimidin-7-one] | < 1000 nM | < 500 nM
COn1c(=O)c(-c2c(Cl)cccc2Cl)cc2cnc(Nc3ccc(CN4CC[C@H](O)C4)cc3)nc21 [Compound 180, 6-(2,6-Dichlorophenyl)-2-(4-(3-(S)-hydroxypyrrolidinomethyl)phenyl)-amino-8-methoxy-pyrido[2,3-d]pyrimidin-7-one] | < 1000 nM | < 100 nM
CCCN1CCN(c2ccc(Nc3ncc4cc(-c5c(F)cccc5Cl)c(=O)n(OC)c4n3)cc2)CC1 [Compound 217, 6-(2-Chloro-6-fluorophenyl)-8-methoxy-2-(4-(4-propylpiperazino)phenyl)-amino-pyrido[2,3-d]pyrimidin-7-one] | < 1000 nM | < 500 nM
COn1c(=O)c(-c2c(Cl)cccc2Cl)cc2cnc(Nc3ccc(N4CCN(S(C)(=O)=O)CC4)cc3)nc21 [Compound 200, 6-(2,6-Dichlorophenyl)-8-methoxy-2-(4-(4-methylsulfonyl)piperazino-phenyl)-amino-pyrido[2,3-d]pyrimidin-7-one] | < 1000 nM | < 500 nM
COn1c(=O)c(-c2c(Cl)cccc2Cl)cc2cnc(Nc3ccc(Br)cc3)nc21 [Compound 191, 2-(4-Bromophenyl)amino-6-(2,6-dichlorophenyl)-8-methoxy-pyrido[2,3-d]pyrimidin-7-one] | < 10000 nM | > 1000 nM
O=c1c(-c2c(F)cccc2Cl)cc2cnc(Nc3ccc(N4CCOCC4)cc3)nc2n1OCC1CCCC1 [Compound 173] | < 1000 nM | < 500 nM
COn1c(=O)c(-c2c(Cl)cccc2Cl)cc2cnc(Nc3cccc(CN4CCC(F)(F)C4)c3)nc21 [Compound 183, 6-(2,6-Dichlorophenyl)-2-(3-(3,3-difluoropyrrolidinomethyl)phenyl)-amino-8-methoxy-pyrido[2,3-d]pyrimidin-7-one] | < 1000 nM | > 1000 nM

Results, then the compound that gave them:

IC50 (HT-29 tumor cells) | IC50 (B-Raf delta1-415) | Compound
< 1000 nM | < 100 nM | CNC(=O)c1cccc(Nc2ncc3cc(-c4c(Cl)cccc4Cl)c(=O)n(OC)c3n2)c1 [Compound 131, 6-(2,6-Dichlorophenyl)-8-methoxy-2-(3-methylaminocarbonylphenyl)-amino-pyrido[2,3-d]pyrimidin-7-one]
< 1000 nM | < 500 nM | COCCOn1c(=O)c(-c2c(Cl)cccc2Cl)cc2cnc(Nc3cc(C(=O)NCCN4CCCC4)n(C)c3)nc21 [Compound 99, 6-(2,6-Dichlorophenyl)-8-(2-methoxyethyl)oxy-2-(5-(2-pyrrolidinoethyl)aminocarbonyl-1-methyl-pyrrol-3-yl)-amino-pyrido[2,3-d]pyrimidin-7-one]
< 10000 nM | < 100 nM | COn1c(=O)c(-c2c(Cl)cccc2Cl)cc2cnc(Nc3cc(C(=O)NC[C@H](O)CO)n(C)c3)nc21 [Compound 118, 6-(2,6-Dichlorophenyl)-2-(5-(2-(S)-2,3-dihydroxyethylamino)carbonyl-1-methyl-pyrrol-3-yl)-amino-8-methoxy-pyrido[2,3-d]pyrimidin-7-one]
< 1000 nM | < 100 nM | COn1c(=O)c(-c2c(Cl)cccc2Cl)cc2cnc(Nc3cc(C(=O)N(C)CCO)n(C)c3)nc21 [Compound 116, 6-(2,6-Dichlorophenyl)-2-(5-(N-(2-hydroxyethyl)-N-methyl-amino)carbonyl-1-methyl-pyrrol-3-yl)-amino-8-methoxy-pyrido[2,3-d]pyrimidin-7-one]
< 1000 nM | < 500 nM | COn1c(=O)c(-c2c(C)cccc2C)cc2cnc(Nc3cc(C(=O)NCCO)n(C)c3)nc21 [Compound 83, 6-(2,6-Dimethylphenyl)-2-(5-(2-hydroxyethyl)aminocarbonyl-1-methyl-pyrrol-3-yl)-amino-8-methoxy-pyrido[2,3-d]pyrimidin-7-one]
< 1000 nM | < 500 nM | COn1c(=O)c(-c2c(Cl)cccc2Cl)cc2cnc(Nc3cc(C(=O)N4CCN(C)CC4)n(C)c3)nc21 [Compound 163, 6-(2,6-Dichlorophenyl)-8-methoxy-2-(5-(4-methylpiperazino)carbonyl-1-methyl-pyrrol-3-yl)-amino-pyrido[2,3-d]pyrimidin-7-one]
< 1000 nM | < 100 nM | COn1c(=O)c(-c2c(F)cccc2Cl)cc2cnc(Nc3cc(C(=O)N4CCNCC4)n(C)c3)nc21 [Compound 208, 6-(2-Chloro-6-fluorophenyl)-8-methoxy-2-(5-piperazinocarbonyl-1-methyl-pyrrol-3-yl)-amino-pyrido[2,3-d]pyrimidin-7-one]
< 1000 nM | < 500 nM | COn1c(=O)c(-c2c(Cl)cccc2Cl)cc2cnc(Nc3cc(C(=O)NCCCN4CCCC4)n(C)c3)nc21 [Compound 95]
